Experimental data as given in patent US11318077B2, “Retinaldehyde containing compositions and methods of use” (RODAN & FIELDS, LLC, priority 2017, dated 2022).
“And” between values parts separate entries of the source, which are not always exact repeats. Equal entries are not always repeated.

Columns and labels:
[1] = tested on: Retinoic Acid Response Element (RARE) transcription factor pathway; assay: Cignal RARE Reporter Assay (firefly luciferase) in HEK293 cells; format: cell-based; conditions: for RARE-mediated firefly luciferase expression, % control / RARE-mediated firefly luciferase expression, Fold increase: 24 h, vs water; for Activity in RARE reporter assay: tested concentrations
Description: Objective: Retinoic Acid Receptor (RAR) controls gene transcription by binding to Retinoid Acid Response Elements (RAREs) in DNA. This process is modulated by all trans retinoic acid (ATRA)—a compound with well-established anti-aging skin benefits. […] Cignal RARE Reporter Assay® is designed to screen for such compounds using cell cultures. The objective of this project was to test 6 compounds (retinoic acid (ATRA), retinol, vitamin A palmitate, retinal, 10% w/w Near-1 in dimethylisosorbide, and 10% w/w retinoid ester in dimethylisosorbide) for the ability to activate RARE in this Cignal RARE Reporter Assay model.
(§1) Materials & Methods: The experiments were performed using HEK293 cells (Sigma, St. Louis, Mo.; cat. #85120602) seeded at 50,000 per well in a 96 well black-wall tissue culture plate. Cells were transfected by mixing Cignal Reporter Assay firefly/renilla luciferase constructs (cat. #CCS-016L; Qiagen) with Attractene Transfection Reagent (Qiagen) in Opti-MEM supplemented with 1% MEM Non-essential amino acid solution without L-glutamine. After medium change test materials were added and their effect on RARE induction was quantified 24 h later with the Dual-Luciferase Reporter Assay System (cat. #E1960; Promega).

[2] = tested on: Retinoid X receptor (RXR) transcription factor pathway; assay: Cignal RXR Reporter Assay (firefly luciferase) in HEK293 cells; format: cell-based; conditions: for RXR activation (% control): 24 h, vs water; for Activity in RXR reporter assay: tested concentrations
Description: Objective: Retinoid X receptors (RXRs) are one class of nuclear receptors through which retinoids mediate their biological effects. These receptors function as transcription factors by binding as heterodimers to specific sequences in the promoters of target genes. The protein encoded by this gene is a member of the steroid and thyroid hormone receptor superfamily of transcriptional regulators. One of its ligands is all trans retinoic acid (ATRA)—a compound with well-established anti-aging skin benefits. […] Cignal RXR Reporter Assay® is designed to screen for such compounds (retinoic acid (ATRA), retinal, 10% w/w Near-1 in dimethylisosorbide, and 10% w/w retinoid ester in dimethylisosorbide) using cell cultures. The objective of this project was to test four compounds for the ability to activate RXR in this Cignal RXR Reporter Assay model.
as §1, with “The” for “Materials & Methods: The”, “Cignal RXR” for “Cignal”, “#CCS9044L;” for “#CCS-016L;”, “Lglutamine.” for “L-glutamine.”, “RXR” for “RARE”
RXR is a mixture of an inducible retinoid X receptor—responsive firefly luciferase construct and a constitutively expressing Renilla construct, which acts as an internal control for normalizing transfection efficiencies and monitoring cell viability. Signal quantification was obtained with ThermoFisher Scientific Luminoskan Ascent Microplate Luminometer.

[3] = tested on: mild to moderate lines and wrinkles, dullness and moderate dyschromia; assay: Expert Grader clinical grading assessment of efficacy, IRS compared with 0.1% Adapalene; format: in vivo, human (women)
Description: (§2) The objective of the study is to evaluate and compare the anti-aging efficacy and tolerability of 0.1% Adapalene compared to Intensive Renewing Serum over a 12-week period when used by women with mild to moderate lines and wrinkles, dullness and moderate dyschromia.
(§3) Expert Grader Assessments: In addition to screening and selecting the final panel, an Expert Grader assessed the face of each subject for various irritation and efficacy parameters at Baseline and after 2, 4, 8 and 12 weeks of treatment. The scale that was used for each assessment parameter (unless otherwise indicated) is: 0=none, 1-3=mild, 4-5=moderate, […].
(§4) Efficacy parameters: The assessments of efficacy were made using methods that would provide the Sponsor the most information on changes in the subject's skin over time. The methods that the Expert Grader used to assess efficacy are as follows: 1. Live Grading: Absolute scores from viewing the subject's face were assigned using a 0-9 scale. Live grades were conducted at each time point. 2. Baseline Aided Grading: Absolute scores from viewing the subject's face were assigned using a 0-9 scale at the Baseline visit and the Expert Grader used the subject's Baseline photo for reference at follow-up visits. Baseline aided grading was conducted at each time point other than at Baseline. 3. Comparison Grading from Photos: Comparison grading was performed after the conclusion of the study. The Expert Grader compared the photos from each time point to Baseline for improvement/worsening using the below scale: −4=Marked worsening, −3=Moderate worsening, −2=Mild worsening, −1=Barely perceptible worsening, −0.1=Forced choice worsening, 0=No change, 0.1=Forced choice improvement, 1=Barely perceptible improvement, 2=Mild improvement, 3=Moderate improvement, and 4=Marked improvement.
The following efficacy parameters were assessed by the Expert Grader along with the assessment method(s) are listed: 1. Skin Texture (softness/smoothness) [tactile]: Live grading, 2. Skin Texture [visual]: Live grading/Baseline aided, 3. Fine Lines (eye area including crow's feet): Live grading/Baseline aided/Comparison scores from photos, 4. Wrinkles (eye area, including crows feet): Live grading, Baseline aided, Comparison scores from photos, 5. Pore appearance: Comparison scores from photos, 6. Firmness: Live grading, 7. Sagging (nasolabial fold area): Comparison scores from photos, 8. Discrete hyperpigmentation: Comparison scores from photos, 9. Mottled hyperpigmentation: Comparison scores from photos, 10. Skin tone evenness: Comparison scores from photos, 11. Radiance/luminosity/glow (defined as Dull to luminous/shiny): Live grading, 12. Sallowness (sallow to rosy): Live grading/Baseline aided, 13. Overall healthy skin appearance: Comparison scores from photos, 14. Overall photodamage: Live grading/Baseline aided, 15. Pinch recoil (under the eye): Live grading (For this assessment, a 0-9 score will not be assigned. Per the Sponsor, the evaluator will pinch the subject's skin at the designated site using the thumb and forefinger and hold the skin in place for approximately 2 seconds. A stopwatch will be started upon release and the time required for the subject's skin to return to its original conformation will be measured to the nearest tenth of a second. A decrease in pinch recoil times over time indicates an improvement in skin “bounce-back” or elasticity/resiliency.). […]

[4] = tested on: mild to moderate lines and wrinkles, dullness and moderate dyschromia; assay: Tolerability assessments (subjective and objective), IRS compared with 0.1% Adapalene, 12 weeks; format: in vivo, human (women); conditions: IRS vs 0.1% Adapalene
Description: as §2
Subjects reported to the facility at Baseline for Expert Grader assessments of various facial photoaging and irritation parameters, subjective assessments of facial irritation, digital imaging of the face, replica sampling of the crow's foot area, capacitance and firmness/elasticity measurements of the face and completed a self-assessment questionnaire. Subjects were randomized to receive 1 of 2 investigational products for treatment to the entire face for 12 weeks. Subjects returned to the lab at Week 2 and Week 4 to have Expert Grader assessments, digital imaging and self-assessments repeated. At Weeks 8 and 12, subjects returned for Expert Grader assessments, digital imaging, replica sampling, capacitance and firmness/elasticity measurements and self-assessments.
as §3
Irritation parameters: The Expert Grader assessed the face of each subject at each time point for the following irritation parameters using a 0-9 scale: Erythema, Dryness, Scaling, and Edema. Using a 0-9 scale, subjects were asked to rate their amount of: Burning, Stinging, Itching, Tightness, and Dryness.
Treatment Procedures: approximately 20-25 subjects assigned to each product per randomization. After the Baseline assessments and measurements had been completed, the subjects reported to the Treatment Technician, who dispensed a new container of their assigned product to the subject and instructed the subject to apply the product according to the Sponsor's instructions below:
Product C: Morning instructions: Follow your regular morning skincare routine. Evening instructions: Product C should be used once daily in the evening, after your regular cleanser. Open a capsule by twisting off the tail end of one capsule. Apply the serum over your entire face, including under the eyes and crow's feet. […] Avoid getting into eyes, In case of inadvertent eye contact, rinse eyes with plenty of water to remove product from eyes. […] Use one capsule per night. Follow with the rest of your evening skin care Regimen. Note: make sure that no water gets into the jar and that your hands are dry before use. Please ensure the jar is tightly closed after each use.
Product N: Morning instructions: Follow your regular morning skincare routine. Evening instructions: Product N should be used once daily in the evening, after your regular cleanser. Clean the skin gently with your regular cleanser and pat dry before applying Product N. Cover the entire face, including under the eyes and crow's feet, with a thin layer. […] Avoid product contact with eyes, lips and mouth. If contact occurs, immediately flush the area with water. […] Wash hands after use. […] Follow with the rest of your evening skin care Regimen.

[5] = tested on: mild to moderate lines and wrinkles, dullness and moderate dyschromia; assay: Comparison grading from photos, IRS compared with 0.1% Adapalene; format: in vivo, human (women)
Protocol: as §4
The following efficacy parameters were assessed by the Expert Grader along with the assessment method(s) are listed: 1. Skin Texture (softness/smoothness) [tactile]: Live grading, 2. Skin Texture [visual]: Live grading/Baseline aided, 3. Fine Lines (eye area including crow's feet): Live grading/Baseline aided/Comparison scores from photos, 4. […] Pinch recoil (under the eye): Live grading (For this assessment, a 0-9 score will not be assigned. Per the Sponsor, the evaluator will pinch the subject's skin at the designated site using the thumb and forefinger and hold the skin in place for approximately 2 seconds. A stopwatch will be started upon release and the time required for the subject's skin to return to its original conformation will be measured to the nearest tenth of a second. A decrease in pinch recoil times over time indicates an improvement in skin “bounce-back” or elasticity/resiliency.). […]

Compound | RARE-mediated firefly luciferase expression, % control ([1]; 1 μM) | RARE-mediated firefly luciferase expression, Fold increase ([1]; 1 μM) | RARE-mediated firefly luciferase expression, % control ([1]; 5 μM) | RARE-mediated firefly luciferase expression, Fold increase ([1]; 5 μM) | RXR activation (% control) ([2]; 1 μM) | RXR activation (% control) ([2]; 5 μM) | Activity in RXR reporter assay [2] | RARE-mediated firefly luciferase expression, % control ([1]; 10 μM) | RARE-mediated firefly luciferase expression, Fold increase ([1]; 10 μM) | Activity in RARE reporter assay [1] | other results
CC1=C(/C=C/C(C)=C/C=C/C(C)=C/C(=O)O)C(C)(C)CCC1 [ATRA, all trans retinoic acid] | 1054 % control and 1284 % control | 10.5 and 12.8 | 973 % control | 9.7 | 340 | 437 | best performers |  |  |  | RARE-mediated firefly luciferase expression, % control ([1]; 0.2 μM): 775 % control and 1099 % control; RARE-mediated firefly luciferase expression, Fold increase ([1]; 0.2 μM): 7.8 and 11.0; RXR activation (% control) ([2]; 0.2 μM): 201 % control
COc1ccc(-c2ccc3cc(C(=O)O)ccc3c2)cc1C12CC3CC(CC(C3)C1)C2 [Adapalene, adapalene] |  |  |  |  |  |  |  |  |  |  | Elasticity/Resiliency, clinical grading ([3]; by weeks 8 & 12): No improvement; Skin Texture (Visual), clinical grading ([3]; by weeks 8 & 12): slight improvement; Fine Lines, clinical grading ([3]; comparable first 4 weeks, mild improvements by week 8, course to week 12): remains constant; Radiance/Luminosity/Glow, clinical grading ([3]; over 12 weeks): Mild improvement persists through week 8; Skin Texture (Tactile), clinical grading ([3]; over 12 weeks): By week 12, no improvement; Burning (subjective) [4]: somewhat greater degree of perceived burning; Dryness (objective, clinical) [4]: greater degree of tactile dryness; Erythema (objective, clinical) [4]: somewhat greater degree of erythema; Scaling (objective, clinical) [4]: greater degree of visual scaling; Stinging (subjective) [4]: somewhat greater degree of perceived stinging; Dryness/Tightness (subjective) ([4]; most notably at Week 4): slightly greater perception of dryness/tightness; Photo comparison mean scores (overall) ([5]; IRS vs 0.1% Adapalene): mean scores slightly favored Adapalene; Discrete Hyperpigmentation, photo comparison ([5]; over 12 weeks): slightly better results; Mottled Hyperpigmentation, photo comparison ([5]; over 12 weeks): progressive & slightly better result
CC1=C(/C=C/C(C)=C/C=C/C(C)=C/C=O)C(C)(C)CCC1 [Retinal, retinaldehyde] | 613 % control | 6.1 | 1005 % control | 10.0 | 131 | 181 | best performers | 946 % control | 9.5 | best performer | times less effective than retinoic acid in modulating the RARE pathway ([1]; at 1 uM): 1.7 times; effectiveness vs retinoic acid in modulating the RARE pathway ([1]; at 5 uM): equivalent to retinoic acid; RXR activation (% control) ([2]; 10 μM): 279 % control; times less effective in modulating RXR pathway in comparison to retinoic acid ([2]; at 5 uM): 2.4 times
CC1=C(/C=C/C(C)=C/C=C/C(C)=C/CO)C(C)(C)CCC1 [Retinol, retinol] | 138 % control and 150 % control | 1.4 and 1.5 | 268 % control and 253 % control | 2.7 and 2.5 |  |  |  | 278 % control and 294 % control | 2.8 and 2.9 |  | 
CCCCCCCCCCCCCCCC(=O)OC/C=C(C)/C=C/C=C(C)/C=C/C1=C(C)CCCC1(C)C [Vit A Palmitate, vitamin A palmitate] | 75 % control and 76 % control | 0.7 and 0.8 | 77 % control and 73 % control | 0.8 and 0.7 |  |  |  | 86 % control and 67 % control | 0.9 and 0.7 | All test materials except Vit-A-Pal were active | 
